We go through seven molecules from patent US9642839B2, “Substance having tyrosine kinase inhibitory activity and preparation method and use thereof” (Institute of Radiation Medicine, China Academy of Military …, priority 2013, dated 2017).

pIC50: −log10 of the molar value.

For experiment [1], the system named is protein tyrosine kinase (PTK). Description: PTK activity assay with mouse brain tissue extract (ELISA, OD 492 nm). The conditions noted are these: at 400 μM. The class given is biochemical. Here is the method:
Tyrosine kinase buffer: 10 mL 1M HEPES (pH 7.5), 0.4 mL 5% BSA/PBS, 0.2 mL 0.1M Na3VO4, and 1 mL 5M NaCl were added to 88.4 mL double distilled water (DDW) (HEPES: Amresco; Na3VO4: Sigma).
Extraction of tissue extract PTK: mouse brain tissue was quickly removed and weighed, followed by addition of five-fold volumes of pre-cooled homogenization buffer for homogenization. After centrifugation at 4° C., 1,000 g for 10 min, nuclei and cell debris were removed. The supernatant S1 was collected and centrifuged at 4° C., 10,000 g for 20 min, and then the supernatant S2 was collected. The precipitate P2, which represents the crude membrane protein fraction, was retained. S2 included cytoplasmic protein, and was used for testing protein tyrosine kinase (PTK) activity. In the detection of the membrane protein fraction, two-fold volumes of lysis buffer was added to P2, and the resultant was placed on ice for 10 min and centrifuged at 4° C., 10,000 g for 10 min. The supernatant S3, which represents the crude membrane protein including soluble membrane protein, was collected for testing PTK activity. Protein content in cytoplasm or membrane protein was detected by using BCA protein concentration kit (purchased from Beyotime Institute of Biotechnology). The tissue extract was stored at −70° C.
Coating of 96-well plate: PTK substrate was dissolved and added in an amount of 100 μl to each well. The plate was covered with its lid, and incubated at 4° C. overnight (10-12 hours). Then it was washed with 200 μl elution buffer once, and dried at 37° C. for 2 h. After that, it was washed with 10 mM PBS once, dried at room temperature, and then stored at 4° C. for further use.
Groups: blank control: 80 μl 1× tyrosine kinase buffer containing ATP+20 μl 1× tyrosine kinase buffer; negative control: 80 μl 1× tyrosine kinase buffer containing ATP+10 μl 1× tyrosine kinase buffer+7 μl tissue extract+3 μl 1× tyrosine kinase buffer; positive control: 80 μl 1× tyrosine kinase buffer containing ATP+10 μl Gefitinib+7 μl tissue extract+3 μl 1× tyrosine kinase buffer (first, the positive drug was allowed to interact with the tyrosine kinase tissue extract at room temperature for 10 min, and meanwhile the tissue extract for the negative control group was also placed at room temperature for 10 min, and then 80 μl 1× tyrosine kinase buffer containing ATP was added to respective groups); vehicle control: 80 μl 1× tyrosine kinase buffer containing ATP+10 μl DMSO+7 μl tissue extract+3 μl 1× tyrosine kinase buffer; drugs to be screened: 80 μl 1× tyrosine kinase buffer containing ATP+10 μl drug to be tested +7 μl tissue extract+3 μl 1× tyrosine kinase buffer.
PTK activity assay: 1× tyrosine kinase buffer was prepared by evenly mixing 1 mL (10×) tyrosine kinase buffer with 9 mL DDW. The tissue extract was diluted with 1× tyrosine kinase buffer appropriately, mixed with it gently and evenly, and placed on ice. ATP stock solution was dissolved by evenly mixing 48 μl ATP stock solution with 1 mL 1× tyrosine kinase buffer, and placed on ice. The microplate reader was added in respective wells with the groups formulated as above, covered with the lid, and incubated at room temperature for 30 min. The microplate reader was washed with 200 μl elution buffer and tapped until the residual buffer was removed, and this procedure was repeated for five times. To each well, 100 μl antibody diluent (antibody elution buffer diluted at a ratio of 1:2000) was added. The reader was covered with the lid, and incubated at room temperature for 30 min. OPD solution was prepared by addition of 4 mg OPD into a mixture of 4.86 mL 0.1 mol/L citric acid solution and 5.14 mL 0.2 mol/L Na2HPO4 solution, followed by addition of 50 μl 30% H2O2 to allow for complete dissolution, and then was protected from light. The antibody solution was removed. The reader was washed with 200 μl elution buffer and tapped until the residual buffer was removed, and this procedure was repeated for five times.

The next experiment has as its system A375 cells. Briefly: In vitro antitumor activity, MTS cell proliferation. The class given is cell-based. Particulars: A375, skin cancer, 72 hours. Here is the method: (§1) Method: 14 cell lines (MKN-45 cells, MHCC97-L cells, MHCC97-H cells, HLE cells, HepG2 cells, 7721 cells, L02 cells, A375 cells, H460 cells, A549 cells, SK-N-SH cells, MCF-7 cells, K562 cells, and Ba/F3-Tpr-Met cells (pre-B cells which are malignantly transformed by the c-Met constitutive active mutant Tpr-Met) were seeded into 96-well plate at 1×10^4 cells/well, and each well was added with 150 μl DMEM medium (purchased from Invitrogen) containing 10% fetal bovine serum (purchased from Hyclone). When cell adherent was observed, different concentrations of 2-indolone derivatives (concentrations at 0.1-10 μM) were added, in addition to the negative control (vehicle control group) and blank control (medium group). After culture at 37° C., 5% CO2 for 72 hours, MTS reagent (Promega Corporation) were added for further culture for 2-4 h.

The subject of a further experiment is Ba/F3-Tpr-Met cells. Described as above. The class given is cell-based. The conditions noted are these: pre-B cell, 72 hours. Here is the method: as §1
Another experiment relates to H460 cells. The description is as above. It is filed as cell-based. The conditions noted are these: H460, lung cancer, 72 hours. The protocol:
as §1

The subject of a further experiment is HLE cells. The experiment is described as above. The class given is cell-based. The conditions noted are these: hepatocellular cancer, 72 hours. The protocol: as §1
For the next experiment, the system named is HepG2 cells. The description is as above. The class given is cell-based. Particulars: HepG2, hepatocellular cancer, 72 hours. Here is the method:
as §1

For another experiment, the system named is K562 cells. The experiment is described as above. It is filed as cell-based. The conditions noted are these: K562, leukemia, 72 hours. Here is the method: as §1
The next experiment deals with MCF-7 cells. Described as above. The class given is cell-based. The conditions noted are these: MCF-7, breast cancer, 72 hours. The protocol: as §1
Another experiment has as its system MHCC97-L cells. Described as above. The class given is cell-based. Particulars: hepatocellular cancer, 72 hours. The protocol:
as §1

Another experiment concerns MKN-45 cells. The experiment is described as above. The class given is cell-based. The conditions noted are these: MKN-45, gastric cancer, 72 hours. Here is the method:
as §1

A further experiment concerns SK-N-SH cells. Described as above. It is filed as cell-based. Particulars: neuroblastoma, 72 hours. Here is the method: as §1
The next experiment has as its system A549 cells. The experiment is described as above. It is filed as cell-based, human. Particulars: A549, lung cancer, 72 hours. Here is the method: as §1
For the next experiment, the system named is MHCC97-H cells. The description is as above. It is filed as cell-based, human. Particulars: hepatocellular cancer, 72 hours. The protocol: as §1
A further experiment relates to L02 cells. Briefly: MTS cell proliferation, normal liver cells. The class given is cell-based. Particulars: L02, normal hepatic cells, 72 hours. Here is the method:
[…] After culture at 37° C., 5% CO2 for 72 hours, MTS reagent (Promega Corporation) were added for further culture for 2-4 h.

On to `O=C1Nc2ccc(S(=O)(=O)Nc3ccc4ccccc4c3)cc2C1=Cc1nc2ccccc2[nH]1` [Indo 1, 3-(1H-benzimidazol-2-methylene)-5-(β-naphthylaminosulfo)-2-indolone], for which the “Inhibition rate on tyrosine kinase” value in [1] was determined as 51.2%. The pIC50 with A375 cells is 5.50; in the experiment on Ba/F3-Tpr-Met cells, 5.27; in the experiment on H460 cells, 5.81; in the experiment on HLE cells, 5.20; with HepG2 cells, 5.19; in the experiment with K562 cells it was 5.52. Further, the pIC50 is 5.76 with MCF-7 cells; 5.81 in the experiment on MHCC97-L cells; 5.71 in the experiment with MKN-45 cells; 5.87 in the experiment with SK-N-SH cells; 5.54 with A549 cells; 5.86 in the experiment on MHCC97-H cells. The molecule also showed a pIC50 in the experiment with L02 cells of 4.61.

Regarding `O=C1Nc2ccc(S(=O)(=O)Nc3ccc(F)c(Cl)c3)cc2C1=Cc1nc2ccccc2[nH]1` [Indo 2, 3-(1H-benzimidazol-2-methylene)-5-(3-chloro-4-fluorophenylaminosulfo)-2-indolone], the “Inhibition rate on tyrosine kinase” value in experiment [1] is 45.2%. Besides, the pIC50 is 5.61 in the experiment with A375 cells; 5.23 with Ba/F3-Tpr-Met cells; 5.75 in the experiment with H460 cells; 5.17 with HLE cells; 5.16 in the experiment on HepG2 cells; 5.49 with K562 cells. The pIC50 with MCF-7 cells was 5.71; in the experiment with MHCC97-L cells, 5.73; in the experiment with MKN-45 cells, 5.67; in the experiment on SK-N-SH cells, 5.75; with A549 cells, 5.50; with MHCC97-H cells, 5.78. In the experiment on L02 cells, this molecule showed a pIC50 of 4.63.

As for `CN(c1ccccc1)S(=O)(=O)c1ccc2c(c1)C(=Cc1nc3ccccc3[nH]1)C(=O)N2` [Indo 3, 3-(1H-benzimidazol-2-methylene)-5-(N-methylphenylaminosulfo)-2-indolone], in experiment [1], the “Inhibition rate on tyrosine kinase” value amounted to 55.9%. Further, the pIC50 with A375 cells is 5.83; in the experiment with Ba/F3-Tpr-Met cells it was 5.41; in the experiment with H460 cells, 5.98; with HLE cells, 5.33; with HepG2 cells, 5.32; in the experiment on K562 cells it was 5.68. Moreover, the pIC50 in the experiment on MCF-7 cells is 6.02; with MHCC97-L cells it was 5.95; in the experiment with MKN-45 cells, 5.89; in the experiment with SK-N-SH cells it was 6.07; in the experiment with A549 cells, 5.81; in the experiment with MHCC97-H cells it was 6.09. The pIC50 with L02 cells was 4.65.

Consider `O=C1Nc2ccc(S(=O)(=O)NC3CCCCC3)cc2C1=Cc1nc2ccccc2[nH]1` [Indo 4, 3-(1H-benzimidazol-2-methylene)-5-(cyclohexylaminosulfo)-2-indolone], for which the “Inhibition rate on tyrosine kinase” value in experiment [1] is on record as 60.7%. In addition, the negative-log IC50 (pIC50) is 6.01 in the experiment with A375 cells; 5.60 with Ba/F3-Tpr-Met cells; 6.11 in the experiment on H460 cells; 5.45 in the experiment on HLE cells; 5.43 with HepG2 cells; 5.87 in the experiment on K562 cells. Also, the pIC50 in the experiment with MCF-7 cells was 5.84; in the experiment with MHCC97-L cells, 6.19; in the experiment on MKN-45 cells, 6.03; with SK-N-SH cells, 6.27; with A549 cells it was 5.63; in the experiment with MHCC97-H cells it was 6.27. The same molecule gave a pIC50 with L02 cells of 4.57.

For `O=C1Nc2ccc(S(=O)(=O)Nc3ccc(Cl)cc3)cc2C1=Cc1nc2ccccc2[nH]1` [Indo 6, 3-(1H-benzimidazol-2-methylene)-5-(4-chlorophenylaminosulfo)-2-indolone], the “Inhibition rate on tyrosine kinase” value in experiment [1] was 55.0%. The pIC50 in the experiment with A375 cells was 5.78; in the experiment with Ba/F3-Tpr-Met cells it was 5.38; in the experiment with H460 cells it was 6.03; in the experiment on HLE cells, 5.31; in the experiment with HepG2 cells, 5.29; in the experiment with K562 cells it was 5.66. For the same molecule, the pIC50 was 5.95 in the experiment on MCF-7 cells; 5.97 in the experiment with MHCC97-L cells; 5.86 in the experiment with MKN-45 cells; 5.97 in the experiment on SK-N-SH cells; 5.70 in the experiment with A549 cells; 6.04 in the experiment on MHCC97-H cells. In the experiment with L02 cells, this molecule showed a pIC50 of 4.64.

On to `O=C1Nc2ccc(S(=O)(=O)Nc3ccc(CCO)cc3)cc2C1=Cc1nc2ccccc2[nH]1` [Indo 7, 3-(1H-benzimidazol-2-methylene)-5-(4-hydroxyethylphenylaminosulfo)-2-indolone], for which the “Inhibition rate on tyrosine kinase” value in [1] was determined as 58.2%. For the same molecule, the pIC50 in the experiment on A375 cells is 5.91; in the experiment on Ba/F3-Tpr-Met cells, 5.51; in the experiment with H460 cells, 6.04; in the experiment on HLE cells, 5.36; in the experiment on HepG2 cells it was 5.37; with K562 cells, 5.78. The negative logarithm of the IC50 (pIC50) in the experiment with MCF-7 cells is 6.08; in the experiment with MHCC97-L cells, 6.01; in the experiment on MKN-45 cells, 5.95; in the experiment with SK-N-SH cells, 6.17; with A549 cells, 5.89; with MHCC97-H cells it was 6.16. Also, the pIC50 in the experiment on L02 cells was 4.59.

As to `Cc1ccc(NS(=O)(=O)c2ccc3c(c2)C(=Cc2nc4ccccc4[nH]2)C(=O)N3)cc1` [Indo 8, 3-(1H-benzimidazol-2-methylene)-5-(4-methylphenylaminosulfo)-2-indolone], the “Inhibition rate on tyrosine kinase” value in experiment [1] worked out at 49.9%. Besides, the pIC50 was 5.63 in the experiment with A375 cells; 5.25 with Ba/F3-Tpr-Met cells; 5.79 with H460 cells; 5.18 with HLE cells; 5.17 with HepG2 cells; 5.51 in the experiment with K562 cells. Besides, the pIC50 with MCF-7 cells is 5.74; with MHCC97-L cells, 5.77; in the experiment on MKN-45 cells, 5.69; with SK-N-SH cells it was 5.80; in the experiment with A549 cells it was 5.52; in the experiment with MHCC97-H cells, 5.82. In addition, in the experiment on L02 cells, the pIC50 was 4.60.
